Measured values as given in US20140336218A1, “ARFORMOTEROL AND TIOTROPIUM COMPOSITIONS AND METHODS FOR USE” (priority 2008, published 2014).

Legend:
[1] = tested on: COPD patients; experiment: Transition Dyspnea Index (TDI) in 2-week clinical trial; type: in vivo, human; details: for Patients with change ≧1 unit (TDI), n (%) / Difference between combined therapy and mono-therapies in TDI, LS mean / TDI, mean (SD) / Patients with change of ≧1 unit (TDI), n (%) / Patients with change of ≧1 unit (TDI), %: week 2; for Patients with change of ≧1 unit (TDI), %: cells print n (%); for improvement in TDI: patients with <50% predicted FEV1 at baseline
Method: (§1) This was a 2-week, prospective, multi-center (34 sites), randomized, modified blind, double dummy, parallel group study designed to evaluate the efficacy and safety of the combination of arformoterol 15 μg BID and tiotropium 18 μg QD (dosed sequentially) versus the individual mono-therapies in the treatment of COPD patients. The study was conducted according to the principles established by the Declaration of Helsinki (see, e.g., World Medical Association Declaration of Helsinki. Recommendations guiding physicians in biomedical research involving human subjects. JAMA 1997; 277:925-926.). Appropriate Institutional Review boards approved the protocol and written informed consent was obtained from the patients.
(§2) Eligible patients were randomized to receive one of three treatments for 14 days: nebulized arformoterol 15 μg (Brovana®, Sepracor Inc., Marlborough, Mass.) BID and placebo DPI QD, nebulized placebo BID and tiotropium 18 μg (Spriva® HandiHaler® Boehringer Ingelheim, Ridgefield, Conn.) DPI QD, or nebulized arformoterol 15 μg BID and tiotropium 18 μg DPI QD. The nebulized drug was administered first using the PARI LC Plus® nebulizer driven by the Duraneb 3000® compressor (Pari: Pari Respiratory Equipment Inc., Midlothian, Va.) at a flow rate of 3.3 L/minute followed (within 5 minutes) by the DPI administration (HandiHaler®). The tiotropium and placebo DPI capsules were identical in size and shape but differed in color.
At screening, the Baseline Dyspnea Index (BDI) (see, e.g., Mahler D A, Weinberg D H, Wells C K, Feinstein A R. The measurement of dyspnea. Contents, interobserver agreement, and physiologic correlates of two new clinical indexes. Chest 1984; 85:751-758; herein incorporated in its entirety by reference) was assessed prior to the first clinic dose, and at week 2 the Transition Dyspnea Index (see id.) was evaluated before first morning dose. The baseline focal score (range 0 to 12) and the transition focal score (range −9 to 9) were the sums of the functional impairment, magnitude of task, and magnitude of effort scores (see id.). Higher scores indicate less dyspnea at baseline (BDI) or greater improvement in dyspnea from baseline (TDI).
The study was designed to detect a mean treatment difference of time normalized FEV1AUC over 24 hours (FEV1AUC0-24) (the primary endpoint) of 0.075 L with a standard deviation of 0.016 L when comparing combined therapy with mono-therapy, using a two-sided 5% significance level, following 2-weeks of dosing for the primary comparison with 80% power. All efficacy analyses were performed on the ITT population. All statistical testing was 2-tailed and conducted at the 5% significance level, unless otherwise indicated. […] To control for multiple comparisons, statistical tests of mean treatment group differences were considered significant if the overall treatment effect in the model was statistically significant at the 5% level. Pulmonary function severity subgroup analysis was performed post hoc by stratifying patients according to the GOLD COPD guidelines (see, e.g., Pauwels R A, Buist A S, Calverley P M, Jenkins C R, Hurd S S. Global strategy for the diagnosis, management, and prevention of chronic obstructive pulmonary disease. NHLBI/WHO Global Initiative for Chronic Obstructive Lung Disease (GOLD) Workshop summary. Am J Respir Crit Care Med 2001; 163:1256-1276;; herein incorporated in its entirety by reference) (<30%, ≧30% to <50%, and ≧50%, respectively). Pairwise comparisons between treatment groups were performed using least square means (LS means) from the linear model with the study baseline (or predose where applicable) as a covariate and the treatment group as a fixed effect.

[2] = tested on: COPD patients; experiment: Rescue medication (levalbuterol MDI) use in 2-week clinical trial; type: in vivo, human
Method: as §1
During the study period, the use of LABAs or long-or short-acting anticholinergic bronchodilators (except for the study medication) was prohibited. Use of oral and inhaled corticosteroids was allowed as long as patients were on a stable dosing regimen for at least 14 days prior to study entry that was maintained throughout the study. Patients were required to withhold oral corticosteroids for at least 24 hours prior to pulmonary function testing. Leukotriene modifiers and methylxanthines were not allowed for at least 7-days prior to study entry. Levalbuterol MDI (Xopenex® Sepracor Inc., Marlborough, Mass.) was supplied and used as-needed for rescue medications for acute bronchospasm and acute treatment of COPD symptoms throughout the trial. Patients were instructed to withhold the use of rescue medication for ≧6 hours prior to each clinic visit.
At the screening visit, baseline values were obtained for COPD symptoms, Modified Medical Research Council (MMRC) Dyspnea Scale, heart rate, vital signs, and pulmonary function tests. Medical event calendars and medication logs that were to be completed daily, and rescue medication were also dispensed. The medication logs were used to assess compliance by monitoring the number of UDV/DPI doses taken.
as §2

[3] = ITT, transition focal score range −9 to 9
[4] = baseline percent predicted FEV1 <50%
[5] = baseline percent predicted FEV1 <50%, combined versus the mono-therapy
[6] = baseline percent predicted FEV1 ≧50%
[7] = baseline percent predicted FEV1 ≧50%, combined versus the mono-therapy
[8] = <50% percent predicted FEV1, changes in levalbuterol MDI use at week 2
[9] = ITT, week 2, change from baseline, levalbuterol rescue
[10] = ≧50% percent predicted FEV1, changes in levalbuterol MDI use at week 2

C[N+]1(C)[C@@H]2C[C@@H](OC(=O)C(O)(c3cccs3)c3cccs3)C[C@H]1[C@@H]1O[C@@H]12 [Tiotropium]
Patients with change ≧1 unit (TDI), n (%) ([1]; ITT): 44 (57.1) n (%) | Difference between combined therapy and mono-therapies in TDI, LS mean ([1]; ITT, combined therapy versus the mono-therapy): 1.3 L | TDI, mean (SD) [1, 3]: 1.8 (2.8) | Patients with change of ≧1 unit (TDI), n (%) [1, 4]: 25 (52.1) n (%) | TDI, mean (SD) [1, 4]: 1.6 (3.0) | Difference between combined therapy and mono-therapies in TDI, LS mean [1, 5]: 2.0 | TDI, mean (SD) [1, 6]: 2.3 (2.5) | Patients with change of ≧1 unit (TDI), % [1, 6]: 19 (67.9) % | Difference between combined therapy and mono-therapies in TDI, LS mean [1, 7]: 0.3 | improvement in TDI [1]: 1.6 units | Number of actuations per day, mean (SD) [2, 8]: −1.8 (3.3) actuations per day | Used levalbuterol, n (%) [2, 8]: 48 (94.1) n (%) | Used levalbuterol, n (%) ([2]; ITT, week 2): 38 (47.5) n (%) | Number of actuations per day, mean (SD) [2, 9]: −1.8 (2.8) actuations per day | Number of days per week, mean (SD) [2, 9]: −2.2 (2.7) days per week | Number of actuations per day, mean (SD) [2, 10]: −1.9 (1.8) actuations per day | Used levalbuterol, n (%) [2, 10]: 27 (96.4) n (%)

COc1ccc(C[C@@H](C)NC[C@H](O)c2ccc(O)c(NC=O)c2)cc1 [Arformoterol]
Patients with change ≧1 unit (TDI), n (%) ([1]; ITT): 50 (66.7) n (%) | TDI, mean (SD) [1, 3]: 2.3 (2.4) | Patients with change of ≧1 unit (TDI), n (%) [1, 4]: 34 (72.3) n (%) | TDI, mean (SD) [1, 4]: 2.3 (2.3) | Difference between combined therapy and mono-therapies in TDI, LS mean [1, 5]: 1.3 | TDI, mean (SD) [1, 6]: 2.3 (2.6) | Patients with change of ≧1 unit (TDI), % [1, 6]: 17 (57.1) % | Difference between combined therapy and mono-therapies in TDI, LS mean [1, 7]: 0.2 | improvement in TDI [1]: 2.3 units | Number of actuations per day, mean (SD) [2, 8]: −2.1 (2.3) actuations per day | Used levalbuterol, n (%) [2, 8]: 45 (95.7) n (%) | Used levalbuterol, n (%) ([2]; ITT, week 2): 40 (52.6) n (%) | Number of actuations per day, mean (SD) [2, 9]: −1.8 (2.2) actuations per day | Number of days per week, mean (SD) [2, 9]: −2.1 (2.6) days per week | Number of actuations per day, mean (SD) [2, 10]: −1.3 (2.0) actuations per day | Used levalbuterol, n (%) [2, 10]: 26 (90)^ n (%)
